Laboratory results reported in PubChem BioAssay (NCI).
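Where inhibition never reached the appropriate level, the endpoint shown equals the highest concentration tested. Otherwise, values were interpolated linearly from a five-concentration, 48-hour dose response in 96-well plates. TGI denotes the concentration required for complete inhibition of growth.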

Key:
Assay in all cases: growth of human tumour cells (NCI), 48 h
[1] = test system: 786-0 renal
[2] = test system: A549 NSCLC
[3] = test system: ACHN renal
[4] = test system: BT-549 breast
[5] = test system: CAKI-1 renal
[6] = test system: COLO 205 colon
[7] = test system: EKVX NSCLC
[8] = test system: HCC-2998 colon
[9] = test system: HCT-116 colon
[10] = test system: HCT-15 colon
[11] = test system: HOP-62 NSCLC
[12] = test system: HOP-92 NSCLC
[13] = test system: HS 578T breast
[14] = test system: HT29 colon
[15] = test system: IGROV1 ovarian
[16] = test system: K-562 leukemia
[17] = test system: KM12 colon
[18] = test system: LOX IMVI melanoma
[19] = test system: M14 melanoma
[20] = test system: MALME-3M melanoma
[21] = test system: MCF7 breast
[22] = test system: MDA-MB-231 breast
[23] = test system: MDA-MB-435
[24] = test system: MDA-N
[25] = test system: MOLT-4 leukemia
[26] = test system: NCI-H226 lung
[27] = test system: NCI-H23 lung
[28] = test system: NCI-H460 lung
[29] = test system: NCI-H522 lung
[30] = test system: NCI/ADR-RES ovarian
[31] = test system: OVCAR-4 ovarian
[32] = test system: OVCAR-5 ovarian
[33] = test system: OVCAR-8 ovarian
[34] = test system: PC-3 prostate
[35] = test system: RPMI-8226 leukemia
[36] = test system: RXF 393 renal
[37] = test system: SF-268 CNS
[38] = test system: SF-295 CNS
[39] = test system: SF-539 CNS
[40] = test system: SK-MEL-2 melanoma
[41] = test system: SK-MEL-28 melanoma
[42] = test system: SK-MEL-5 melanoma
[43] = test system: SK-OV-3 ovarian
[44] = test system: SN12C renal
[45] = test system: SNB-19 CNS
[46] = test system: SNB-75 CNS
[47] = test system: SR leukemia
[48] = test system: SW-620 colon
[49] = test system: T-47D breast
[50] = test system: TK-10 renal
[51] = test system: U251 CNS
[52] = test system: UACC-257 melanoma
[53] = test system: UACC-62 melanoma
[54] = test system: UO-31 renal
[55] = test system: CCRF-CEM leukemia
[56] = test system: OVCAR-3 ovarian

In the case of C=CCOC(=O)C[C@H](NC(=O)[C@H](Cc1ccc(O)cc1)NCC(F)(F)F)C(=O)OCC=C, the TGI [1] was > 100 µM, the TGI [2] was > 100 µM and the TGI [3] was > 100 µM. The TGI [4] was > 100 µM, the TGI [5] was > 100 µM and the TGI [6] was > 100 µM. For the same molecule, the TGI [7] was > 100 µM, the TGI [8] was > 100 µM and the TGI [9] was > 100 µM. The TGI [10] was > 100 µM, the TGI [11] was > 100 µM and the TGI [12] was > 100 µM. The TGI [13] was > 100 µM, the TGI [14] was > 100 µM and the TGI [15] was > 100 µM. The TGI [16] was > 100 µM, the TGI [17] was > 100 µM and the TGI [18] was > 100 µM. For the same molecule, the TGI [19] was > 100 µM, the TGI [20] was 52.7 µM and the TGI [21] was > 100 µM. For the same molecule, the TGI [22] was > 100 µM, the TGI [23] was > 100 µM and the TGI [24] was > 100 µM. The TGI [25] was 60.1 µM, the TGI [26] was > 100 µM and the TGI [27] was > 100 µM. For the same molecule, the TGI [28] was > 100 µM, the TGI [29] was 68.9 µM and the TGI [30] was > 100 µM. The TGI [31] was > 100 µM, the TGI [32] was > 100 µM and the TGI [33] was > 100 µM. The TGI [34] was > 100 µM, the TGI [35] was > 100 µM and the TGI [36] was > 100 µM. For the same molecule, the TGI [37] was > 100 µM, the TGI [38] was > 100 µM and the TGI [39] was > 100 µM. It also gave a TGI [40] of 46.1 µM, a TGI [41] of 44.5 µM and a TGI [42] of 97.5 µM. The TGI [43] was > 100 µM, the TGI [44] was > 100 µM and the TGI [45] was > 100 µM. The TGI [46] was > 100 µM, the TGI [47] was > 100 µM and the TGI [48] was > 100 µM. For the same molecule, the TGI [49] was 58.1 µM, the TGI [50] was > 100 µM and the TGI [51] was > 100 µM. The TGI [52] was 44.2 µM, the TGI [53] was > 100 µM and the TGI [54] was > 100 µM.

CCC1(O)CC(OC2CC(N(C)C)C(OC3CC(O)C(OC4CCC(=O)C(C)O4)C(C)O3)C(C)O2)c2c(cc3c(c2O)C(=O)c2c(O)ccc(O)c2C3=O)C1C(=O)OC (centres undefined) was tested, and the TGI [1] was 0.493 µM, the TGI [4] was 1.78 µM and the TGI [5] was < 0.01 µM. For the same molecule, the TGI [55] was 0.0528 µM, the TGI [6] was 0.0131 µM and the TGI [7] was 0.116 µM. For the same molecule, the TGI [8] was < 0.0112 µM, the TGI [10] was 0.018 µM and the TGI [11] was 0.156 µM. The TGI [12] was 0.0185 µM, the TGI [13] was 0.384 µM and the TGI [14] was < 0.0105 µM. For the same molecule, the TGI [15] was 1.22 µM, the TGI [16] was < 0.01 µM and the TGI [17] was 0.0994 µM. For the same molecule, the TGI [18] was < 0.01 µM, the TGI [19] was 0.0516 µM and the TGI [20] was 0.029 µM. The TGI [21] was 2.01 µM, the TGI [22] was 0.113 µM and the TGI [23] was 0.409 µM. It also gave a TGI [24] of 0.0251 µM, a TGI [25] of 0.0101 µM and a TGI [27] of 0.0343 µM. The TGI [28] was < 0.01 µM, the TGI [29] was < 0.01 µM and the TGI [30] was 0.259 µM. For the same molecule, the TGI [56] was 0.186 µM, the TGI [31] was 0.214 µM and the TGI [32] was 10.8 µM. The TGI [33] was 0.0739 µM, the TGI [34] was 0.393 µM and the TGI [35] was 0.0109 µM. The TGI [37] was 0.208 µM, the TGI [38] was 0.441 µM and the TGI [40] was 0.0148 µM. The TGI [41] was 0.211 µM, the TGI [42] was 0.0282 µM and the TGI [43] was 13.3 µM. The TGI [44] was 1.18 µM, the TGI [45] was 2.41 µM and the TGI [46] was 0.0846 µM. The TGI [47] was < 0.01 µM, the TGI [48] was 3.56 µM and the TGI [49] was 0.597 µM. For the same molecule, the TGI [50] was 0.0339 µM, the TGI [51] was 2.22 µM and the TGI [52] was 0.0294 µM. For the same molecule, the TGI [53] was < 0.0132 µM and the TGI [54] was < 0.01 µM.
